Source: paper PMC11137182, “Selective and brain-penetrant ACSS2 inhibitors target breast cancer brain metastatic cells” (Frontiers in Pharmacology, 2024)

Assays:
[1] = test system: MDA-MB-231BR cells; assay: Acetyl-CoA quantification by LC-HRMS; format: cell-based; conditions: 100 μM, 48 h
Experimental: (§1) Cells were grown to ∼80% confluency in a 10-cm dish in normal growth medium, 48 h prior to collecting cells, aspirate media and replace with fresh growth media and drug was added at 100 μM. To collect cells, media was aspirated and 1 mL of 10% trichloroacetic acid (w/v) in water was added directly to the cells. Cells were scraped and transferred into a 1.7 mL Eppendorf tube and stored at −80 until labeling. […] Lysates were centrifuged 17,000 g for 10 min at 4°C and supernatant was transferred to a deep-well 96-well plate for loading in a Tomtec Quadra4 liquid handling workstation. On the liquid handling workstation, lysates were applied to an Oasis HLB 96-well elution plate (30 mg of sorbent per well) pre-conditioned and equilibrated with 1 mL of methanol and 1 mL of water, respectively. After de-salting with 1 mL of water, analytes were eluted into a deep-well 96-well plate using 1 mL of 25 mM ammonium acetate in methanol. Eluent was evaporated dried under nitrogen gas. The dried LC-HRMS samples were resuspended in 50 µL of 5% (w/v) sulfosalicylic acid in water. […] A modified gradient using solvent A (5 mM ammonium acetate in water), solvent B (5 mM ammonium acetate in 95:5 (v:v) acetonitrile: water) and solvent C (0.1% (v/v) formic acid in 80:20 (v:v) acetonitrile: water). Data was acquired using XCalibur 4.0 (Thermo Scientific) and analyzed using Tracefinder 5.1 (Thermo Scientific).

[2] = test system: 4T1BR cells; assay: Acetyl-CoA quantification by LC-HRMS; format: cell-based; conditions: 100 μM, 48 hours
Experimental: as §1

[3] = test system: MDA-MB-231BR tumor bearing brain slices; assay: Ex vivo tumor-brain slice model; set-up: species or system Nu/Nu mice; conditions: MDA-MB-231BR brain slices, 100 μM, 6 days, bioluminescence
Experimental: Ex vivo brain slice tumor model was performed as previously described ([Ciraku et al., 2021]). Briefly, Nu/Nu athymic 4–6 week old mice Charles River Laboratories (Wilmington, MA, United States) were immobilized using the Just for Mice Stereotaxic Frame (Harvard Apparatus, Holliston, MA, United States) and injected intracranially with 5uL of 20,000 cells/uL solution of luciferase tagged MDA-MB-231BR or 4T1BR cells. Tumor growth was monitored via bioluminescence imaging on the IVIS system (Perkin Elmer, Waltman, MA, United States). Organotypic hippocampal cultures were prepared as described previously ([Ciraku et al., 2021]). Briefly, adult mice (4–6 weeks) or mice after 12 days following intracranial injection were decapitated and their brains rapidly removed into ice-cold (4°C) sucrose-aCSF composed of the following (in mM): 280 sucrose, 5 KCl, 2 MgCl2, 1 CaCl2, 20 glucose, 10 HEPES, 5 Na^+-ascorbate, 3 thiourea, 2 Na^+-pyruvate; pH = 7.3. […] Tumor growth was monitored via bioluminescence imaging on the IVIS 200 system (Perkin Elmer), and results were analyzed using Living Image software (Caliper Life Sciences, Waltham, MA, United StatesUnited States). […] Tissues were incubated at 37 ℃ , 5% CO2 for 4 h, and absorbance at 490 nm was measured with a Tecan Spark Microplate reader.

[4] = test system: MDR1-MDCK cells; assay: Bi-directional permeability across MDR1-MDCK cell monolayer (BBB assay); format: in vitro ADME, canine; conditions: MDR1-MDCK BBB assay
From the text: (§2) This assay provides the apparent permeability coefficient (Papp), efflux ratio, and % recovery to assess compound permeation.

[5] = test system: MDR1 (P-gp); assay: as above; format: in vitro ADME, canine; conditions: dog, MDR1-MDCK I monolayer
From the text: as §2

[6] = test system: FASN; assay: Immunoblot of FASN protein levels; format: cell-based; conditions: MDA-MB-231BR cells, 24 h
Experimental: Immunoblotting protocols have been previously described. Briefly, cell lysates from one to five x 10^6 cells were prepared in radioimmune precipitation assay buffer (150 mM NaCl, 1% NP40, 0.5% DOC, 50 mM Tris HCL at pH 8, 0.1% SDS, 10% glycerol, 5 mM EDTA, 20 mM NaF, and 1 mM Na3VO4) supplemented with 1 μg/mL each of pepstatin, leupeptin, aprotinin, and 200 μg/mL PMSF. Lysates were cleared by centrifugation at 16,000 x g for 15 min at 4°C and analyzed by SDS-PAGE and autoradiography with chemiluminescence. Proteins were analyzed by immunoblotting using primary antibodies indicated above.

[7] = biological target: T1, ACSS2 (Homo sapiens, UniProt Q9NR19); assay: Fluorescence polarization-based ACSS2 biochemical assay (ATP to AMP conversion); conditions: 100 nM ACSS2, triplicate, ± SD; read-out: IC50, inhibition of ATP to AMP conversion of ACSS2
T1 construct: His-tag (N); His-tag (C); made in house; host or cells: E. coli BL21 (DE3) RIL
T1 sequence (Q9NR19 whole entry): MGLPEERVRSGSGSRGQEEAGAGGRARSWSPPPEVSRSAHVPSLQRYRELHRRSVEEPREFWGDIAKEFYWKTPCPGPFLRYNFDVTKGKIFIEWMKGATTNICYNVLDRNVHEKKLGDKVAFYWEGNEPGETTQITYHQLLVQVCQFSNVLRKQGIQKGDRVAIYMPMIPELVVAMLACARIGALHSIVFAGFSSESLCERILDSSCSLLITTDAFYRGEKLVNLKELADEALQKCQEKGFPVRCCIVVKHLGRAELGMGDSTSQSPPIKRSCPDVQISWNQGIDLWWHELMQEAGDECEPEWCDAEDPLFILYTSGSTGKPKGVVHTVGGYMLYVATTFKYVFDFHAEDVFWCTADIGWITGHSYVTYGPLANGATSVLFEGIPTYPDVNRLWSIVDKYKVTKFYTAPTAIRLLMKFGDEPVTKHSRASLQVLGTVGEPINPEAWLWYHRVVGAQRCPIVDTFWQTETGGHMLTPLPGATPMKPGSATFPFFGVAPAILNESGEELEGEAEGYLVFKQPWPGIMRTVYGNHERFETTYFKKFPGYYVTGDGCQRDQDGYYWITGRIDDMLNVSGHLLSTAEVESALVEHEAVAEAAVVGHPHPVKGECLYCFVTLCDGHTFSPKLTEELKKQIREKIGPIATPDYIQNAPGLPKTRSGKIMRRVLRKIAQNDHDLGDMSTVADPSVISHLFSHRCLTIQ
Experimental: ACSS2 enzyme activity was measured using the TranScreener AMP^2/GMP^2 Assay Kit—FP Readout assay (BellBrook Labs). The assay was performed in white, opaque, 96-well plates. […] ACSS2 was used in assay buffer (30 mM HEPES, pH 7.4, 140 mM NaCl, 2 mM MgCl2, 5 mM sodium acetate, 2 mM DTT, 0.05% CHAPS). Substrate mix was added, followed by a 60-min incubation. Final substrate concentrations were 5 mM acetate, 50 μM ATP, and 5 μM CoA. After incubation, conjugated AMP antibody and AMP tracer were added according to the methods described by BellBrook Labs. After 30 min, the FP signal was measured using a Tecan Spark multimode microplate reader. In the analysis, data were normalized to represent the percentage inhibition of ATPase activity.

SMILES: N[C@H](C(=O)N1CCCC(c2ccccc2)(c2ccccc2)C1)C1CC1 [AD-8007]
- acetyl-CoA levels [1]: significantly reduced acetyl-CoA levels
- acetyl-CoA levels [2]: significantly reduced acetyl-CoA levels
- tumor growth of preformed tumors ex vivo [3]: significantly reduced tumor growth of preformed tumors
- efflux ratio (in words) [4]: low efflux ratio
- permeability (in words) [4]: moderate permeability
- Papp A→B ([5]; A to B): 2.81 ×10⁻⁶ cm/s
- Papp B→A ([5]; B to A): 25.2 ×10⁻⁶ cm/s
- protein levels of FASN [6]: reduced protein levels of FASN
- IC50 [7]: 890 ± 290 nM
